Experimental findings from US8067411B2, “Compounds” (AstraZeneca AB, priority 2006, dated 2011) are described below.

In this assay the target is T1, Recombinant human TLR7 (Homo sapiens, UniProt Q9NYK1).
T1 construct: expressed in transfected cells; host or cells: HEK293 cell line stably expressing the pNiFty2-SEAP reporter plasmid; TLR7 in pUNO vector, blasticidin selection
T1 sequence (Q9NYK1 27-1049): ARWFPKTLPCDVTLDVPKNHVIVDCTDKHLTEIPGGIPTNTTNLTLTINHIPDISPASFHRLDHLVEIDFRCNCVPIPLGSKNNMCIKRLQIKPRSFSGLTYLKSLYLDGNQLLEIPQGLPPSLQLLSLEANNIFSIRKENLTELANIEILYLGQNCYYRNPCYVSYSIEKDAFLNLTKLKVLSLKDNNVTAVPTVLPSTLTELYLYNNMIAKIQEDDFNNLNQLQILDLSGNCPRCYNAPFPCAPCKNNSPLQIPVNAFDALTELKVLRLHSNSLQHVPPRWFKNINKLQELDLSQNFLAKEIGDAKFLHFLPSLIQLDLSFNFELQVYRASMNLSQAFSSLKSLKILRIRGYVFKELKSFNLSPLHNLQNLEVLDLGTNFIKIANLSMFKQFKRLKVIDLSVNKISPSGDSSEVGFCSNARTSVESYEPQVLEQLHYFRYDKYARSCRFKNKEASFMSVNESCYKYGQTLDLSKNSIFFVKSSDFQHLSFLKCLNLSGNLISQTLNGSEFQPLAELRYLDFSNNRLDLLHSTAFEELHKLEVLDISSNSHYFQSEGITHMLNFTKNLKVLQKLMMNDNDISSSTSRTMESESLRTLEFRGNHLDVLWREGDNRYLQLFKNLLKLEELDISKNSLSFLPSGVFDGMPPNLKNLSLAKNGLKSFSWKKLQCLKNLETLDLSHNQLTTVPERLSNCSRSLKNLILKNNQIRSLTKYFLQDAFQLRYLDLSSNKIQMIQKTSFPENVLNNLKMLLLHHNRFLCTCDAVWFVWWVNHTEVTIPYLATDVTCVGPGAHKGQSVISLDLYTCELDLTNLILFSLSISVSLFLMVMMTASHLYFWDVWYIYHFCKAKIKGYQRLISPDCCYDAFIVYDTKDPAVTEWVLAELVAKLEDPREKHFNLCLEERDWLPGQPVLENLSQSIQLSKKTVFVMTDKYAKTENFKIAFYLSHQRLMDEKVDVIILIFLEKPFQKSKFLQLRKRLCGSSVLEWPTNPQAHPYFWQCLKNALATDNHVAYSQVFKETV
The experiment in a line: Human TLR7 assay (SEAP reporter in HEK293 cells). The assay is classed as cell-based. The note with it: log of the minimal effective concentration of compound to induce SEAP release; HEK293 pNiFty2-SEAP reporter cell line, overnight incubation at 37° C., 0.1% (v/v) DMSO. An excerpt:
Recombinant human TLR7 was stably expressed in a HEK293 cell line already stably expressing the pNiFty2-SEAP reporter plasmid; integration of the reporter gene was maintained by selection with the antibiotic zeocin. The most common variant sequence of human TLR7 (represented by the EMBL sequence AF240467) was cloned into the mammalian cell expression vector pUNO and transfected into this reporter cell-line. Transfectants with stable expression were selected using the antibiotic blasticidin. In this reporter cell-line, expression of secreted alkaline phosphatase (SEAP) is controlled by an NFkB/ELAM-1 composite promoter comprising five NFkB sites combined with the proximal ELAM-1 promoter. TLR signaling leads to the translocation of NFkB and activation of the promoter results in expression of the SEAP gene. TLR7-specific activation was assessed by determining the level of SEAP produced following overnight incubation of the cells at 37° C. with the standard compound in the presence of 0.1% (v/v) dimethylsulfoxide (DMSO). Concentration dependent induction of SEAP production by compounds was expressed as the log of the minimal effective concentration of compound to induce SEAP release (pMEC).
Regarding `CCCCOc1nc(N)c2[nH]c(=O)n(CCCN(CCCN3CCOCC3)Cc3ccc(SC)cc3)c2n1` [Example 8, 6-Amino-2-butoxy-9-{3-[[4-(methylthio)benzyl] (3-morpholin-4-ylpropyl)amino]propyl}-7,9-dihydro-8H-purin-8-one], the pMEC came to 7.2.

Turning to `CCCCOc1nc(N)c2[nH]c(=O)n(CCCN(CCCN3CCOCC3)Cc3cc(OC)cc(OC)c3)c2n1` [Example 12, 6-Amino-2-butoxy-9-{3-[(3,5-dimethoxybenzyl)(3-morpholin-4-ylpropyl)amino]propyl}-7,9-dihydro-8H-purin-8-one], the pMEC is reported as more than 7.7.

Turning to `CCCCOc1nc(N)c2[nH]c(=O)n(CCCN(CCCN3CCOCC3)Cc3ccc(-n4cncn4)cc3)c2n1` [Example 16, 6-Amino-2-butoxy-9-(3-{(3-morpholin-4-ylpropyl)[4-(1H-1,2,4-triazol-1-yl)benzyl]amino}propyl)-7,9-dihydro-8H-purin-8-one], the pMEC is 7.4.
